Non-standard residues stand in square brackets, D forms with d. Residues, ends and D or L forms follow the SMILES beside them. ξ: configuration not given here. *: point of attachment. ξTHIQ1CO(6-Me) = Cc1ccc2c(c1)CCNC2C(=O)O; X1 = O=C(O)CC(N*)C(=O)COc1c(F)cccc1F; Quinaldoyl = O=C(c1ccc2ccccc2n1)*
What was measured:
[1] = molecular target: human recombinant Caspase-6 (Homo sapiens, UniProt P55212); experiment: Additional enzyme kinetics, Caspase-6; settings: concentrations up to 10 µM
Protocol: (§2) The human active recombinant Caspase-3 (#707-C3) was purchased from R&D Systems (Minneapolis, USA). […] Stock solutions were stored at −80 °C. […] Caspase inhibitors were solubilized in DMSO at 10 mM and stored at −80 °C.
(§3) Initial velocity (V0) was determined from the linear portion of the progress curve. The composition of the activity buffer was: 20 mM HEPES, pH 7.4; 0.1% CHAPS, 5 mM DTT, 2 mM EDTA; 800 mM sodium succinate for Caspase-2 (0.2 nM) with 25 µM of Ac-VDVAD-7-amino-3-methylcoumarin (AMC) and 20 mM HEPES, pH 7.4; 0.1% CHAPS, 5 mM DTT, 2 mM EDTA; supplemented with 1 mg/mL of stabilizing agent bovine serum albumin (BSA) for Caspase-3 (0.1 nM) with 10 μM of Ac-DEVD-AMC. Compounds (0.001–100 µM) were tested in duplicate for each inhibitor concentration to detect their inhibitory potential. Enzymes and compounds were incubated for 30 min before initiating enzymatic reaction by adding substrate. Initial rates determined in control experiments (V0) were considered as 100% of the caspase activity; initial rates that were below 100% in the presence of tested compound (Vi) were considered as inhibition. The inhibitory activity of compounds was expressed as IC50 (Inhibitor concentration giving 50% inhibition). The values of IC50 were calculated by fitting the experimental data using Mars data Analysis 2.0 and KaleidaGraph software.1 %Inhibition=1001−Vi/V0=100I0/IC50+I0

[2] = molecular target: human recombinant Caspase-1 (Homo sapiens, UniProt P29466); experiment: Additional enzyme kinetics, Caspase-1; settings: concentrations up to 10 µM
Protocol: as §2, §3

[3] = system: Casp2-S1P-SREBP2 activation pathway in HEK 293 cells; experiment: Casp2-dependent S1P cleavage and SREBP2 activation in transfected HEK 293 cells (WB); settings: 10 µM, 16 h
Protocol: To test SREBP processing, HEK 293 (ATCC® CRL-1573) cells were plated at a density of 0.5 × 10^5 per well (6-well plates). The next day, 1 μg of each cDNAs were transfected using lipofectamine 3000 (Thermo Fisher Scientific, MA) according to the manufacturer’s instruction. cDNAs used were empty vector (EV), Casp2-HA, PIDD-Flag, RAIDD-His, Myc-S1P, and V5-SREBP2. After 4 h, cells were incubated in DMEM/F12 medium supplemented with indicated Casp2 inhibitors (10 μM) for 16 h. Whole-cell lysates were prepared in lysate buffer (150 mM Tris-HCl, pH 7.4, 10% sodium-deoxycholate, 100 mM NaCl, 100 mM EDTA, 100 mM PMSF, 200 mM NaF, 100 mM Na3VO4, and a mixture of protease inhibitors). […] Equal quantities of proteins were subjected to immunoblot (WB) analysis with anti-Flag (#F7425 Sigma-Aldrich), anti-HA (#1867431, Roche), anti-Casp2 (#ALX-804-356, 11B4, Enzo Life Sciences), anti-V5 monoclonal antibody (#13202, Cell Signaling Technology), anti-Casp3 (#9661, #9662, #9664, Cell Signaling Technologies), and anti-HSP90 (#sc-101494, Santa Cruz Technologies).
HEK 293 cells were transfected with indicated plasmids in order to overexpress SREBP2, S1P, RAIDD, PIDD1, and Casp-2. […] HEK 293 cells were transfected with the indicated plasmids. […] Then, whole cell extracts (WCL) were prepared and subjected to WB analysis to detect Casp2 (through HA tag), RAIDD (through 6HIS tag), and PIDD1, PIDD1-C, PIDD1-CC (through Flag tag).

HeLa cells = experiment: Vincristine-induced HeLa cell death (propidium iodide, flow cytometry); type: cell-based, human; settings: indicated doses, 1 h pretreatment, 20 nM vincristine 44 h
Protocol: (§1) HeLa cells (obtained from ATCC) were cultured in Dulbecco’s Modified Eagle Medium (DMEM, High Glucose, GlutaMAX™, Pyruvate) supplemented with antibiotics and 10% fetal calf serum (FCS) (Gibco, Life Technologies) and maintained in T75 Flasks at 1 × 10^6 cells per flask. Twenty-four hours before treatments, HeLa cells were transferred to 6-well plates (8 × 10^4 cells/well). The lymphoblastoid cell line Molt4cl8 was a gift from Dr. Bernard Krust (Inserm, University Paris 5) and was cultured in RPMI 1640 Glutamax medium supplemented with Hepes, antibiotics, and 10% FCS. HEK293 cells were obtained from ATCC (CRL-1573) and cultured in DMEM with Glutamax and 25 mM glucose (Life Technologies) supplemented with 10% FCS and antibiotics. For cell death induction, the following agents were added to cell cultures: Vincristine (Sigma) and Panobistat (LBH589; Selleck). Cell death was analyzed using fluorescence microscopy (Axio-observer Z1, Zeiss; equipped with CCD camera CoolsnapHQ2, Ropert Scientific) and cytofluorometry (MACSQuant® VYB; Miltenyi Biotec, Bergisch Gladbach, Germany) after labeling with propidium iodide (1 µg/mL; 10 min; 37 °C; Life Technologies) and Hoechst 33342 (1 µg/mL; 5 min; RT; Sigma).
Fig. 2 q33 and h33 are protective against the cytocidal effect of Vincristine. a Vincristine induces HeLa cell death. Cells were incubated for 44 h at 37 °C with 20 nM Vincristine (VCR), then incubated with propidium iodide at 2 μg/mL for 10 min and analyzed by flow cytometry to quantify plasma membrane permeabilization. Histograms show fluorescence intensity detected by flow cytometry (one representative experiment) in the presence (VCR) or Absence (Co.) of Vincristine. % of propidium iodide-positive cells are indicated for both conditions. b Dose–response of Vincristine-induced cell death. HeLa cells were incubated and treated as in (a) with the indicated doses of Vincristine (VCR) and analyzed by flow cytometry. […] Representative fluorescence microscopy micrographs of cells treated for 44 h with 20 nM vincristine (VCR) or not (Co.) and stained with Hoechst 33342. Vincristine induces progressive nuclear changes with first condensed nuclei (arrows) and then apoptotic bodies (dashed arrow). d Broad-spectrum irreversible caspase inhibitors prevent vincristine-induced cell death. HeLa cells were pretreated for 1 hr with the indicated broad-spectrum irreversible caspases inhibitors (z-VAD(OMe)-fmk at 30 μM, Q-VD-OPh 30 μM, Emricasan 10 μM, or the negative control Q-VE-OPh 30 μM), then treated with vincristine as in panel (a), and analyzed by flow cytometry. Histograms show the mean ± SD of 3 independent experiments (***p value < 0.001). e Effect of the reversible Caspase-2 inhibitors q33 and h33 against vincristine-induced cell death. HeLa cells were pretreated for 1 h with the indicated doses of q33 or h33, then treated with vincristine as in panel a, and analyzed by flow cytometry. Histograms show the mean ± SD of three independent experiments (*p value < 0.1). TEXT PRINTED IN THE PICTURE: (a) VCR: 39,5 % DOUBTS OF THE COPYIST ABOUT THIS PICTURE: Panel a: the picture prints no measure beside "39,5 %" and "4.1%". I assigned 39,5 % to VCR only because it stands by the grey VCR peak. / Panel a: "4.1%" seems to belong to the untreated control (Co.). That is not a substance, so it is left out.
Fig. 5 LJ2 inhibits cell death induced by microtubule destabilization and hydroxamic acid-based deacetylase (HDAC) inhibition. a Effect of the irreversible Caspase-2 inhibitors LJ2 against vincristine-induced cell death. HeLa cells were pretreated for 1 h with the indicated doses of LJ2, Q-VD-OPh, or Q-LETD-OPh, then treated with vincristine (VCR) as in Fig. 2, then incubated with propidium iodide at 2 μg/mL for 10 min and analyzed by flow cytometry. Histogram data are mean ± SD (n = 3, *p value < 0.01). b Effect of Caspases-inhibitors against Panobistat (LBH589)-induced cell death. […]

[4] = system: Molt4 lymphoid human cells; experiment: Panobistat (LBH589)-induced cell death in Molt4 cells (propidium iodide, flow cytometry); type: cell-based; settings: Molt4, 1 h pretreatment (30 µM or indicated doses), 25 nM LBH589 24 h
Protocol: as §1
Fig. 5 LJ2 inhibits cell death induced by microtubule destabilization and hydroxamic acid-based deacetylase (HDAC) inhibition. a Effect of the irreversible Caspase-2 inhibitors LJ2 against vincristine-induced cell death. HeLa cells were pretreated for 1 h with the indicated doses of LJ2, Q-VD-OPh, or Q-LETD-OPh, then treated with vincristine (VCR) as in Fig. 2, then incubated with propidium iodide at 2 μg/mL for 10 min and analyzed by flow cytometry. […] Molt4 lymphoid human cells where were pretreated for 1 h with 30 µM of LJ2, Q-VD-OPh, or Belnacasan (VX-765), then treated for 24 h with 25 nM of LBH589, then incubated with propidium iodide as in (a) and analyzed by flow cytometry. […] Molt4 cells were treated as in (b) with the indicated doses of LJ2 or Q-VD-OPh and analyzed by flow cytometry. […]

Sequence of human recombinant Caspase-1 (P29466 120-297 limits assumed): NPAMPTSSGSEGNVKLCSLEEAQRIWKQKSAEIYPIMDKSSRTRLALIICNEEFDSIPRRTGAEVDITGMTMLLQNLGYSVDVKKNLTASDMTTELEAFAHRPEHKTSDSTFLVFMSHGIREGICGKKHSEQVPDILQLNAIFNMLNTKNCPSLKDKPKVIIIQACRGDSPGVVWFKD
Sequence of human recombinant Caspase-1 (P29466 317-404 limits assumed): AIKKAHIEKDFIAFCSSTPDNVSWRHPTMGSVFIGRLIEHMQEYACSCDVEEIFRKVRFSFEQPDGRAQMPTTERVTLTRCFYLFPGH
Sequence of human recombinant Caspase-6 (P55212 24-179 limits assumed): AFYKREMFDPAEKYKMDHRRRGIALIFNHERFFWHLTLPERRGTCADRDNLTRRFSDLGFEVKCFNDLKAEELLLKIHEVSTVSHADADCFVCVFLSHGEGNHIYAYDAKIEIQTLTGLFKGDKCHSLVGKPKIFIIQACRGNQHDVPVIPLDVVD
Sequence of human recombinant Caspase-6 (P55212 194-293 limits assumed): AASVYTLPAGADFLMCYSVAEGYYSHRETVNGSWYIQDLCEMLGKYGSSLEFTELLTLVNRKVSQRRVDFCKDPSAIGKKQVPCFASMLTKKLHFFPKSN

Structure (SMILES)	effect on Caspase-6 [1]	effect on Caspase-1 [2]	S1P cleavage [3]	SREBP2 activation [3]	impact on RAIDD, PIDD1, and Casp2 expression [3]	effect against vincristine-induced cell death (HeLa cells)	effect against Panobistat (LBH589)-induced cell death [4]
CC(C)[C@H](NC(=O)c1ccc2ccccc2n1)C(=O)N[C@@H](CC(=O)O)C(=O)N[C@H](C(=O)N1CC[C@H](CC(C)(C)C)[C@@H]1C(=O)NC(CC(=O)O)C(=O)COc1c(F)cccc1F)C(C)C (stereo partly shown) [LJ3a]	very limited or no effect	very limited or no effect	abolished	abolished	no significant impact		
Cc1ccc2c(c1)CCN(C(=O)[C@@H](NC(=O)[C@H](CC(=O)O)NC(=O)[C@@H](NC(=O)c1ccc3ccccc3n1)C(C)C)C(C)C)C2C(=O)NC(CC(=O)O)C(=O)COc1c(F)cccc1F (stereo partly drawn) [LJ2, Quinolin-2-carbonyl-VDV-(methyl-isoquinolyl)-D-CH2-O(2,6F2)Ph] (Quinaldoyl-VDV[ξTHIQ1CO(6-Me)]-X1)						significantly prevented Vincristin-induced cell death in a dose-dependent manner	dose-dependent inhibition of cell death
